Data set [1] deals with glioblastoma cell line U138MG. Nature of the data set: Glutamate contents assay. Format: cell-based. To be noted: U138MG cells after drug treatment, compared to cell viability, Figure 7. The source says: (§1) A microplate reader was used to measure absorbances.
Drug efficacy describes how the drug-protein interaction manipulates the normal action of the protein. Glutamate content was examined at differing drug concentrations with the glutamate assay kit to measure drug efficacies. Abcam protocol (ab83389) was followed to quantitate glutamate content. Here, the protocols were summarized.
To prepare samples, cells were harvested, washed with cold PBS, resuspended in an assay buffer, homogenised, incubated for 15 - 30 min on ice, and centrifuged for 2 - 5 minutes at 4°C at top speed using a cold microcentrifuge. The supernatant was collected and transferred to a clean tube, then distributed to well plates.
To quantitate free glutamate levels, the reaction mixture was added to each standard and sample well. The background reaction mix was added to the background sample wells. Wells were mixed and incubated at 37°C for 30 minutes protected from light. Colour change was measured at OD = 450 nm (blue). Glutamate concentration was calculated as formulated in the protocol, then divided by relative cytotoxicity by MTT assay to extrapolate drug efficacy.

The test system of another data set is glutaminase-1. Nature of the data set: Western blot for drug-induced glutaminase content. Format: cell-based. To be noted: U138MG cells, Figure 8. On the procedure:
as §1
(§2) Drug-induced glutaminase content was measured by western. The cells were washed with PBS and lysed with CelLytic M (C2978, Sigma-Aldrich, Saint Louis, MO, USA) lysis buffer containing protease inhibitors. The lysates were centrifuged at 12,000 rotations per minute for 5 min, and the supernatant was collected. Proteins were separated by Mini-PROTEAN® TGXTM Precast Gels (BioRad, Berkeley, CA, USA) and transferred to a Trans-Blot Turbo Mini 0.2um PVDF Transfer Packs membrane (BioRad, Berkeley, CA, USA) by using Trans-Blot® TurboTM Transfer System (Bio-Rad, Berkeley, CA, USA). The antibodies for mitochondrial glutaminase-1 (kidney-type) and glutaminase-2 (liver-type) encoded from two GLS isomers and GAPDH were used for primary immunoblotting. All the antibodies were diluted at a 1:1000 concentration. DMSO was used as a blank reference. The membranes were incubated in primary antibody solution overnight at 4 °C with gentle rocking. The secondary antibody, goat Anti-Rabbit HRP (ab205718) or goat anti-mouse IgG-HRP (sc2005, Santa Cruz Biotechnology, Inc., Dallas, TX, USA), was blotted for 30 min at 4 °C with gentle rocking. The protein bands were detected with ImageQuant LAS 500 (29-0050-63)

Another data set concerns glutaminase-2. Nature of the data set: Western blot for drug-induced glutaminase content. The conditions noted are these: U138MG cells, Figure 8. Format: cell-based. The protocol: as §1, §2
In data set [2] the test system is glioblastoma cell line U138MG.
Procedure: (§3) Before performing these assays, the optimum cell count per well was decided by comparing the optical density for L-glutamate (ab120049) absorbance between DMEM-0819 (with glutamine) and DMEM-5671 (without glutamine) culture media, which was tested by glutamate assay kit from Abcam (Abcam PLC, Cambridge, UK) at 450 nm following its protocol, then cultured 20000 cells per well in DMEM-0819 with L-alanyl-L glutamine, adherently, treated with drugs dissolved in DMSO separately. To prepare LDH assay high control samples, cell lysis solution was added instead of drugs. Samples were incubated in a humidified incubator (at 37 °C, 5% CO2). A microplate reader was used to measure absorbances.
(§4) Tetrazolium reduction assay (MTT assays) and lactate dehydrogenase release assays (LDH assays) were conducted to assess cell metabolic activity (cell proliferation) and to measure cytotoxicity (drug toxicity). Abcam protocols (MTT: ab211091, LDH: ab65293) were followed. Here, both protocols were summarized.
(§5) Before adding assay solutions on day 1 (24 hours) and day 2 (48 hours), the drug treatment media were aspirated from plates and transferred to well plates.
(§6) For the MTT assay, serum-free media and MTT Reagent were added to each well. Control samples were prepared without using cells but serum-free media and MTT reagent. […] The reduction of MTT by mitochondrial succinate dehydrogenase was measured by reading absorbance at OD = 590 nm (yellow to purple). Cytotoxicity (CT) was calculated as a ratio of measures of absorbance of control wells (AbsC) and absorbance of sample-containing wells (AbsS) as below: CT = 100∗((AbsC−AbsS))/(AbsC) [formula]
(§7) For the LDH release assay, LDH reaction mix was added to wells. […] The release of LDH from cells due to damaged plasma membrane was measured by reading absorbance at OD = 450 nm (blue). Cytotoxicity (CT) was calculated as a ratio of measures of absorbance of low control wells (AbsLC), high control wells (AbsHC) sample wells (AbsS) as below: CT = 100∗((AbsS−AbsLC))/((AbsHC−AbsLC)) [formula]
For data set [3], the system named is glioblastoma cell line U138MG. Nature of the data set: Drug toxicity: MTT assay and LDH release assay. To be noted: U138MG glial cells, MTT and LDH release assays, 24 and 48 hours, Figure 6.
Procedure: as §3, §4, §5, §6, §7

Like-named read-outs stand apart in the source and are kept apart here.

As to `CC12CC3CC(C)(C1)CC(N)(C3)C2` [memantine], the glutamate levels result in data set [1] is given as “highly decreased”. Also, in the data set on glutaminase-1, the “drug affinity for glutaminase-1 (relative band intensities)” value is given as “significant drug affinity for glutaminase-1 could be measured for only comparably higher concentrations”. Moreover, the “drug affinity for glutaminase-2 (relative band intensities)” value in the data set on glutaminase-2 is “significant and higher affinity”. The “drug toxicity (metabolic activity and cytotoxicity)” value (shortened to “drug toxicity”) in data set [2] is reported as “insignificant”.
Regarding `CC(C)C[C@H](NC(=O)[C@H](Cc1ccccc1)NC(=O)c1cnccn1)B(O)O` [bortezomib], in data set [1], the glutamate levels entry is “highly decreased”. For the same compound, in the data set with glutaminase-2, the “drug affinity for glutaminase-2 (relative band intensities)” value was “drastic”. In addition, the “drug toxicity” value in data set [2] is recorded as “toxic for glial cells even at low concentrations”.
Take `CCCCc1ccc2[nH]c(NC(=O)OC)nc2c1` [parbendazole]: the glutamate levels entry in data set [1] is given as “highly decreased”. In addition, the “drug affinity for glutaminase-1 (relative band intensities)” value in the data set with glutaminase-1 is given as “significant drug affinity for glutaminase-1 could be measured for only comparably higher concentrations”. Further, the “drug affinity for glutaminase-2 (relative band intensities)” value with glutaminase-2 is given as “drastic”. In addition, the “drug toxicity” value in data set [3] is on record as “toxic for glial cells even at low concentrations”.

Values taken from EP4427746A1, “TREATMENT OF DEMENTIA USING BORTEZOMIB OR PARBENDAZOLE” (Bash Biotech Inc, priority 2023, dated 2024).
